Reference: US20020055465A1, “Nocathiacin antibiotics prepared by biotransformation or chemical methods” (priority 2000, published 2002)
≈ marks a conversion by molar mass, not a printed value. Where a name gives a salt, the structure may show the parent alone. Read-outs that look alike come from different tables or passages of the source.

What was measured:
[1] = system: Bacillus subtilis/ATCC6633; assay: MIC, broth micro dilution assay (NCCLS); assay type: cell-based
Method: (§1) The serial broth dilution method used Mueller-Hinton medium except for the Streptococcus pneumoniae which was tested in 50% Mueller-Hinton medium and 50% Todd Hewitt medium. The final bacterial inoculate contained approximately 5×10^5 cfu/well and was run on microtiter plates. The volume of each well was 100 μL and the plates were incubated at 35° C. for 18 hours in ambient air. The MIC was defined as the lowest drug concentration that prevented visible growth.

[2] = system: Enterococcus faecalis; assay: MIC, broth micro dilution assay (NCCLS); assay type: cell-based; conditions: strain A20688
Method: as §1

[3] = system: Enterococcus faecium; assay: MIC, broth micro dilution assay (NCCLS); assay type: cell-based
Method: as §1

[4] = system: Moraxella catarrhalis/β-lactamase positive; assay: MIC, broth micro dilution assay (NCCLS); assay type: cell-based; conditions: strain A22344
Method: as §1

[5] = system: Staphylococcus aureus; assay: MIC, broth micro dilution assay (NCCLS); assay type: cell-based
Method: as §1

[6] = system: Staphylococcus epidermidis; assay: MIC, broth micro dilution assay (NCCLS); assay type: cell-based; conditions: strain A24548
Method: as §1

[7] = system: Staphylococcus haemolyticus; assay: MIC, broth micro dilution assay (NCCLS); assay type: cell-based; conditions: strain A27298
Method: as §1

[8] = system: Streptococcus pneumoniae; assay: MIC, broth micro dilution assay (NCCLS); assay type: cell-based
Method: as §1

[9] = system: Staphylococcus aureus A15090; assay: Systemic Staphylococcus aureus infection model; assay type: in vivo; conditions: female ICR mice infected IP with S. aureus A15090; compound SC at 1 and 4 hours post-infection
Method: Nocathiacin IV and nocathiacin IV 6-deoxyglucoside were evaluated for antibiotic activity in vivo, in a systemic infection model using female ICR mice. The animals were infected intraperitoneally (IP) with 6.5×10^6 CFU of an overnight culture of Staphylococcus aureus A15090 suspended in 7% mucin. The compound was dissolved in a test formulation consisting of 10% DMSO, 5% Tween 80 and 85% water. The solution was administered subcutaneously (SC) at 100 mg/kg total dose (2×50 mg/kg doses at 1 and 4 hours post-infection). The PD50 of nocathiacin IV was determined to be 1.07 mg/kg. The PD50 of nocathiacin IV 6-deoxyglucoside was determined to be 6.4 mg/kg.

[10] = Enterococcus faecalis + 50% calf serum
[11] = Enterococcus faecalis, read-out: MIC
[12] = Enterococcus faecium/vancomycin resistant, strain A28142
[13] = 209P / ATCC 6538P, Staphylococcus aureus/209P/ATCC6538P, strain A9497
[14] = Staphylococcus aureus + 50% calf serum, strain A15090
[15] = Staphylococcus aureus + 50% calf serum, strain A27223
[16] = Staphylococcus aureus/homo methicillin resistant, strain A27223
[17] = Staphylococcus aureus/β lactamase positive, strain A15090
[18] = Streptococcus pneumoniae, strain A9585, 50% Mueller-Hinton/50% Todd Hewitt medium
[19] = Streptococcus pneumoniae/penicillin intermediate, strain A27881
[20] = Streptococcus pneumoniae/penicillin resistant, strain A28272, read-out: MIC

Compound	MIC [1]	MIC [2, 10]	MIC [2, 11]	MIC [3, 12]	MIC ([3]; strain A24885)	MIC [4]	MIC [5, 13]	MIC [5, 14]	MIC [5, 15]	MIC [5, 16]	MIC [5, 17]	MIC [6]	MIC [7]	MIC [8, 18]	MIC [8, 19]	MIC [8, 20]	PD50 [9]
CO/C(C)=C1/NC(=O)C(C(C)O)NC(=O)c2csc(n2)-c2cc(O)c(-c3nc(C(N)=O)cs3)nc2-c2csc(n2)C2COC(=O)c3c4c5c(cccc5n3O)COC(=O)C(OC3CC(C)(O)C(N(C)C)C(C)O3)C(OC4)C(NC(=O)c3csc1n3)c1nc(cs1)C(=O)N2 (stereo not shown) [Nocathiacin IV (HCI salt), nocathiacin IV]	0.06 µg/mL	0.03 µg/mL	0.03 µg/mL	0.03 µg/mL	0.06 µg/mL	0.25 µg/mL	0.03 µg/mL	0.03 µg/mL	0.03 µg/mL	0.03 µg/mL	0.03 µg/mL	0.06 µg/mL	0.06 µg/mL	0.001 µg/mL	0.001 µg/mL	0.001 µg/mL	–
CO/C(C)=C1/NC(=O)C(C(C)O)NC(=O)c2csc(n2)-c2cc(OC3OC(C)C(O)C(O)C3O)c(-c3nc(C(N)=O)cs3)nc2-c2csc(n2)C2COC(=O)c3c4c5c(cccc5n3O)COC(=O)C(OC3CC(C)(O)C(N(C)C)C(C)O3)C(OC4)C(NC(=O)c3csc1n3)c1nc(cs1)C(=O)N2 (stereo not shown) [nocathiacin IV 6-deoxyglucoside]	0.5 µg/mL (≈ 0.33 µM)	0.25 µg/mL	0.25 µg/mL (≈ 0.165 µM)	0.5 µg/mL (≈ 0.33 µM)	0.5 µg/mL (≈ 0.33 µM)	2 µg/mL (≈ 1.32 µM)	0.5 µg/mL (≈ 0.33 µM)	0.25 µg/mL	0.25 µg/mL	0.5 µg/mL (≈ 0.33 µM)	0.5 µg/mL (≈ 0.33 µM)	0.25 µg/mL (≈ 0.165 µM)	0.5 µg/mL (≈ 0.33 µM)	0.03 µg/mL (≈ 0.0198 µM)	0.03 µg/mL (≈ 0.0198 µM)	0.03 µg/mL (≈ 0.0198 µM)	6.4 mg/kg
CO/C(C)=C1/NC(=O)C(C(C)O)NC(=O)c2csc(n2)-c2cc(O)c(-c3nc(C(N)=O)cs3)nc2-c2csc(n2)C2COC(=O)c3c4c5c(cccc5n3O)COC(=O)C(OC3CC(C)(O)C(N(C)C)C(C)O3)C(OC4)C(NC(=O)c3csc1n3)c1nc(cs1)C(=O)N2 (stereo not shown) [nocathiacin IV]	–	–	–	–	–	–	–	–	–	–	–	–	–	–	–	–	1.07 mg/kg
